Reference: patent US11827622B2, “Crystalline forms of imidacloprid and methods of use thereof” (New York University, priority 2020, dated 2023)

Columns and labels:
Culex quinquefasciatus = experiment: Lethality (knockdown time) on contact with IMI polymorph microcrystals in petri dish, Culex mosquitoes; assay type: in vivo; details: Culex females; median knockdown time; 0.100 mg microcrystals per 100 mm dish
Experimental: (§1) Lethality measurements for IMI polymorphs. Microcrystals of IMI Forms I, IV, VI, and IX were prepared by grinding respective single crystals using a mortar and pestle. Their compositions were then analyzed by powder X-ray diffraction (PXRD). Lethality measurements were performed in triplicate for each solid-state form, each accompanied by three controls (no insecticide). 2.0 mg of microcrystals was added to a 35 mm diameter polystyrene petri dish, which was subsequently shaken to disperse the microcrystals throughout the petri dish. Microcrystals was added to a polystyrene petri dish (2.000 mg microcrystals per 35 mm diameter dish for fruit flies; 0.100 mg microcrystals per 100 mm diameter dish for mosquitoes), which was subsequently shaken to disperse the microcrystals throughout the petri dish. Adult mosquitoes (Ae. aegypti, A. quadrimaculatus or C. quinquefasciatus) or fruit flies (D. melanogaster) were sedated with carbon dioxide and 30 female mosquitoes or 20 flies were transferred to each petri dish. The top of the dish was then placed over the bottom and the motion of the insects was recorded with a video camera (Sony HDR-CX455). The knockdown time was measured for each individual insect, with knockdown associated with an insect laying on the bottom surface of the petri dish in a supine position without moving from its original position after 10 seconds.
(§2) Statistical analyses. Logistic regression of knockdown-time curves was preformed to obtain the median knockdown time (KT50) of the test flies and mosquitoes, the 95% confidence intervals (CI), slopes, and standard errors (SE) using Qcal software.

Drosophila melanogaster = experiment: Lethality (knockdown time) on contact with IMI polymorph microcrystals in petri dish, fruit flies; assay type: in vivo; details: for KT50 (95% CI): median knockdown time, 2.0 mg microcrystals per 35 mm dish; for times faster-acting than Form I: ratio of KT50 values
Experimental: as §1, §2
IMI Forms IX, VI, IV were selected for lethality comparison with the commercial Form I, collectively representing a quartet spanning a wide range of free energies. […] A video camera was used to record the knockdown times—a proxy for lethality—for each insect. KT50 values, the times required for 50% of the insects to become immobile and supine, were calculated by logistic regression of knockdown-time curves (FIGS. 34A-34P). Shorter KT50 values correspond to greater lethality. Accordingly, Forms IX, VI and IV were 5.7, 2.5 and 1.8 times faster-acting than Form I.

[1] = test system: Anopheles quadrimaculatus; experiment: Lethality (knockdown time) on contact with IMI polymorph microcrystals in petri dish, Anopheles mosquitoes; assay type: in vivo; details: Anopheles females; median knockdown time; 0.100 mg microcrystals per 100 mm dish
Experimental: as §1, §2

Aedes aegypti = experiment: Lethality (knockdown time) on contact with IMI polymorph microcrystals in petri dish, Aedes mosquitoes; assay type: in vivo; details: for KT50 (95% CI): Aedes females, median knockdown time, 0.100 mg microcrystals per 100 mm dish
Experimental: as §1, §2

[2] = assay type: physicochemical
Experimental: IMI polymorphs exposed in open air at ambient temperature are typically stable for at least 6 months. Although the polymorphic forms were distinguishable by visual inspection (from their interference colors between crossed polarizers and morphologies), their identity and any phase transformations were always corroborated by micro-Raman spectroscopy and PXRD. Form IX held at 95° C. on a microscope hot stage in air transformed to Form V in 3 min, which then converted to Form I at 110° C. in 2 min. Form I also can nucleate directly on the surface of Form IX at T>70° C. Form IX crystals confined between glass slides nucleate Form I, V or VI within Form IX at 80° C. within 1 min. […] Form VI transforms to III when they were in contact at 110° C.

Aedes = experiment: Lethality measurement of IMI vapor, Aedes; assay type: in vivo, Aedes aegypti
Experimental: (§3) Crystalline insecticide was added to an opened glass vial tapped to the bottom of a petri dish, which was subsequently covered with porous polyester substrate. Female Aedes and Drosophila were sedated with carbon dioxide and were transferred onto the porous substrate. An inverted petri dish was then placed over the polyester substrate to seal the assembly. The motion of the Aedes and Drosophila was recorded with a video camera. An opened glass vial containing 2.0 mg IMI microcrystals was tapped to the bottom of the petri dish (FIGS. 35A-35E).

Drosophila = experiment: Lethality measurement of IMI vapor, Drosophila; assay type: in vivo, Drosophila melanogaster
Experimental: as §3

[3] = 2.0 mg IMI microcrystals in opened glass vial under porous polyester substrate

| Compound | KT50 (95% CI) (Culex quinquefasciatus) | KT50 (95% CI) (Drosophila melanogaster) | KT50 (95% CI) [1] | KT50 (95% CI) (Aedes aegypti) | times faster-acting than Form I (Drosophila melanogaster) [times] | other results |
| --- | --- | --- | --- | --- | --- | --- |
| O=[N+]([O-])NC1=NCCN1Cc1ccc(Cl)nc1 [Form I, 1-[(6-chloro-3-pyridinyl)-methyl]-N-nitro-2-imidazolidinimine, reference compound] | 573 (568-581) min | 562 (536-589) min | 524 (515-534) min | 643 (621-664) min | – | thermodynamic stability [2]: the most thermodynamically stable crystal form |
| O=[N+]([O-])N=C1NCCN1Cc1ccc(Cl)nc1 [Form IV, 1-[(6-chloro-3-pyridinyl)-methyl]-N-nitro-2-imidazolidinimine] | 311 (309-313) min | 321 (302-343) min | 220 (216-224) min | 335 (329-342) min | 1.8 | – |
| O=[N+]([O-])NC1=NCCN1Cc1ccc(Cl)nc1 [Form IX, 1-[(6-chloro-3-pyridinyl)-methyl]-N-nitro-2-imidazolidinimine] | 89 (88-91) min | 99 (93-105) min | 84 (82-86) min | 70 (68-71) min | 5.7 | kinetic stability against transformation to other polymorphs [2]: kinetically stable against transformations to other polymorphs; time to nucleation of Form I, V or VI within the form ([2]; crystals confined between glass slides, 80° C.): ≤ 1 min; time of transformation to Form V ([2]; held at 95° C. on microscope hot stage in air): 3 min |
| O=[N+]([O-])N=C1NCCN1Cc1ccc(Cl)nc1 [Form V, 1-[(6-chloro-3-pyridinyl)-methyl]-N-nitro-2-imidazolidinimine] | – | – | – | – | – | time of conversion to Form I ([2]; at 110° C.): 2 min |
| O=[N+]([O-])N=C1NCCN1Cc1ccc(Cl)nc1 [Form VI, 1-[(6-chloro-3-pyridinyl)-methyl]-N-nitro-2-imidazolidinimine] | 192 (189-195) min | 223 (210-238) min | 143 (141-144) min | 152 (147-157) min | 2.5 | – |
| O=[N+]([O-])N=C1NCCN1Cc1ccc(Cl)nc1 [IMI, 1-[(6-chloro-3-pyridinyl)-methyl]-N-nitro-2-imidazolidinimine] | – | – | – | – | – | effect of exposure to IMI vapor (Aedes; [3]): remained viable with no nerve firing symptoms; effect of exposure to IMI vapor (Aedes; after 12 hours): remained viable with no nerve firing symptoms; time within which all insects were knocked down (Drosophila melanogaster; direct contact with the same amount of IMI microcrystals in petri dishes): ≤ 10 h; effect of exposure to IMI vapor (Drosophila; [3]): remained viable with no nerve firing symptoms; effect of exposure to IMI vapor (Drosophila; after 12 hours): remained viable with no nerve firing symptoms; time within which all insects were knocked down (Aedes aegypti; Aedes, direct contact with the same amount of IMI microcrystals in petri dishes): ≤ 10 h |
